# Legend:
# Format in all cases: biochemical
# [1] = target: TrkA (Homo sapiens, UniProt P04629); experiment: Kinase profiling TrkA
# Text: (§1) Any value less that 25 is considered to be highly significant inhibition.
# [2] = target: DYRK1A (Homo sapiens, UniProt Q13627); experiment: DYRK 1A assay (kinase profiling)
# Description: Assays are stopped by addition of 5 μl of 0.5 M (3%) orthophosphoric acid and then harvested onto P81 Unifilter plates with a wash buffer of 50 mM orthophosphoric acid.
# as §1
# [3] = target: HER4 (Homo sapiens, UniProt Q15303); experiment: Kinase profiling HER4
# Text: as §1
# [4] = target: JNK1 (Homo sapiens, UniProt P45983); experiment: Kinase profiling JNK1
# JNK1, sequence (P45983 whole entry, species assumed): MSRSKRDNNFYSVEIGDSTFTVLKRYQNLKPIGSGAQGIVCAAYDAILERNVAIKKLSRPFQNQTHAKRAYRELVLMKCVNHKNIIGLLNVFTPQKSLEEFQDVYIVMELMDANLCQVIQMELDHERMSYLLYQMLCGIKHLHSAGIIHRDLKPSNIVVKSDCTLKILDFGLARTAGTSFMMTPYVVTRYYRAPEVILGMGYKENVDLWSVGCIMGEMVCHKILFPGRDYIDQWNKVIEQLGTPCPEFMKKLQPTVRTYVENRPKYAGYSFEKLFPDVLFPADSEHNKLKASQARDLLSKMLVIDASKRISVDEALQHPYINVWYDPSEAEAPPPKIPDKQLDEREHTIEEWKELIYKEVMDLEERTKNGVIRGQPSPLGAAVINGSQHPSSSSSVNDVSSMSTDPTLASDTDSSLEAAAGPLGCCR
# Text: as §1
# [5] = target: PLK1 (Homo sapiens, UniProt P53350); experiment: Kinase profiling PLK1
# Text: as §1
# [6] = target: NEK6 (Homo sapiens, UniProt Q9HC98); experiment: Kinase profiling NEK6
# NEK6, sequence (Q9HC98 whole entry, species assumed): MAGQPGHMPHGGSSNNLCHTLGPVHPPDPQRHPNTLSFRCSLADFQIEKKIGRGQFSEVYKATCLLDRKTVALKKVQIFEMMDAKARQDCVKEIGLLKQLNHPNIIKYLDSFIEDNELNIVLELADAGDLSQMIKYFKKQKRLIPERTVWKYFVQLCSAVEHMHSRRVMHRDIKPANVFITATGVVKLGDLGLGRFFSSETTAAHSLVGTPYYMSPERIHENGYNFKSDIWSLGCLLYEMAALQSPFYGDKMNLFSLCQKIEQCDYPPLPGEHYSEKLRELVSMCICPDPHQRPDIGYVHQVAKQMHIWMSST
# Text: as §1
# [7] = target: CAMK1 (Homo sapiens, UniProt Q14012); experiment: Kinase profiling CAMK1
# Text: as §1
# [8] = target: T1, PDK1 (Homo sapiens, UniProt O15530); experiment: Kinase profiling PDK1
# T1 sequence (O15530 1-556): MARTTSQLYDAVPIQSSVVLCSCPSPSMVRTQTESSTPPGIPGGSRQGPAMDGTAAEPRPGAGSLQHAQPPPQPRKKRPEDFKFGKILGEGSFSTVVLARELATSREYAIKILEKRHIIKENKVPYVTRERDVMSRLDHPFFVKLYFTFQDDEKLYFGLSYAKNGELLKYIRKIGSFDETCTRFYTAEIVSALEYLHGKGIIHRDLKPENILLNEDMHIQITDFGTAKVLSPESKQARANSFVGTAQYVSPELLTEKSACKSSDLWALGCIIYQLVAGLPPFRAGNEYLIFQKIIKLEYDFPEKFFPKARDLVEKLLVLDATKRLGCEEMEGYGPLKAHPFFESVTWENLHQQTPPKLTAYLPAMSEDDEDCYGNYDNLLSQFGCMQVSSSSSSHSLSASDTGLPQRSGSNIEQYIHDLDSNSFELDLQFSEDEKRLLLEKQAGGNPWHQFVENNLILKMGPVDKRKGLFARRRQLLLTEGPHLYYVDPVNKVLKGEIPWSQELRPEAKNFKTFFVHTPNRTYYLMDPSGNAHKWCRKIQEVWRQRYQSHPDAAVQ
# Text: as §1
# [9] = system: CK2; experiment: Kinase profiling CK2
# Text: as §1
# [10] = target: MKK1 (Homo sapiens, UniProt Q02750); experiment: Kinase profiling MKK1
# MKK1, sequence (Q02750 whole entry, species assumed): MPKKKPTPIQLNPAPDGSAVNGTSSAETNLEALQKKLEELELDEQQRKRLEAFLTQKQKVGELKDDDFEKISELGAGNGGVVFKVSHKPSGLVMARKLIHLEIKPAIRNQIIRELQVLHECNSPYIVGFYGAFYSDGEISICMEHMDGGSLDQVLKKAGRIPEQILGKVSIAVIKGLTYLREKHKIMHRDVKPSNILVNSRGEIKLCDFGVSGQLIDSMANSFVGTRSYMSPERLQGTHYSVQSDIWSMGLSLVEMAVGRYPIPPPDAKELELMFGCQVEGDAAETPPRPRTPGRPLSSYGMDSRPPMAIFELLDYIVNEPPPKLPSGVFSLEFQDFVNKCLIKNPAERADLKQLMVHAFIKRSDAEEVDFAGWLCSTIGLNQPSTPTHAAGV
# Text: as §1
# [11] = target: RSK1 (Homo sapiens, UniProt Q15418); experiment: Kinase profiling RSK1
# RSK1, sequence (Q15418 whole entry, species assumed): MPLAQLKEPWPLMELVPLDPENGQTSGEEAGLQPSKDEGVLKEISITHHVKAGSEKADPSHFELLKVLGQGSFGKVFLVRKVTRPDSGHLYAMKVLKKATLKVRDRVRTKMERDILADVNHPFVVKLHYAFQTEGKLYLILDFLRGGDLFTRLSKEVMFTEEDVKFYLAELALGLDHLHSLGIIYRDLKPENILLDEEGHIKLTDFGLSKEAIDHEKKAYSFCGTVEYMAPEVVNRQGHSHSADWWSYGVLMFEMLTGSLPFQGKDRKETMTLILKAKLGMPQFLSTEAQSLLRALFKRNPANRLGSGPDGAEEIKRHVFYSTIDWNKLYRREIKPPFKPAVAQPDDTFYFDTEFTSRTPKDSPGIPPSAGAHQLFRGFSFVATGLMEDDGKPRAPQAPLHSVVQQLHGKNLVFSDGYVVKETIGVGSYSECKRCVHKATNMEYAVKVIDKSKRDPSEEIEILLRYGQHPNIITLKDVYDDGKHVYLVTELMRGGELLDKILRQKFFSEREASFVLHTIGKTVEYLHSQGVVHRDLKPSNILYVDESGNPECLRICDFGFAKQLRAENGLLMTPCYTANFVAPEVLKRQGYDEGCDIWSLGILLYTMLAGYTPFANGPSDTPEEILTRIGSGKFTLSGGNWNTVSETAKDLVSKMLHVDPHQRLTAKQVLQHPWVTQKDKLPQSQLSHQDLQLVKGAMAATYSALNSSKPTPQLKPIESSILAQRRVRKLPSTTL
# Text: as §1
# [12] = target: T2, TTK (Homo sapiens, UniProt P33981); experiment: Kinase profiling TTK
# T2 sequence (P33981 1-857): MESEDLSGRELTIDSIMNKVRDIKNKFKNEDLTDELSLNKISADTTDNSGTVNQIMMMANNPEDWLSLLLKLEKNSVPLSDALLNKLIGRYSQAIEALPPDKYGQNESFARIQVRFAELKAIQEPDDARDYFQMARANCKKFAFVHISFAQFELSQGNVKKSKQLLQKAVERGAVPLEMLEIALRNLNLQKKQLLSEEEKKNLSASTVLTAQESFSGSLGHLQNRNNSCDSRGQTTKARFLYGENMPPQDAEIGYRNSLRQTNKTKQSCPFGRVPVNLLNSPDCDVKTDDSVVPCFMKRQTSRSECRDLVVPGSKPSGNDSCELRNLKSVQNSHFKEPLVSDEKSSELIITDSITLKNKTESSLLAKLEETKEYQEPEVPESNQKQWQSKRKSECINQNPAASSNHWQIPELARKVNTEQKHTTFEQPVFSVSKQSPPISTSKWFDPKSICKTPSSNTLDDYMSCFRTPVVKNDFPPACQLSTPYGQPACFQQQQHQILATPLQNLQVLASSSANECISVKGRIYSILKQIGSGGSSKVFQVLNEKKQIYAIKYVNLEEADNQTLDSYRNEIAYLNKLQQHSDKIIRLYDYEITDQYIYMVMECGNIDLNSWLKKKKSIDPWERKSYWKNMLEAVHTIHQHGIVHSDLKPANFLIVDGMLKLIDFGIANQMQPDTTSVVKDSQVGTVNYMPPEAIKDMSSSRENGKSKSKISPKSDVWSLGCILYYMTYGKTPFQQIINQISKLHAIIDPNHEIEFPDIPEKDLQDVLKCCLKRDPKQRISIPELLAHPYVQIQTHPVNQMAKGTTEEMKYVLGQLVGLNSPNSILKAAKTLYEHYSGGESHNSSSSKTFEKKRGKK
# Text: as §1
# [13] = target: Src (Homo sapiens, UniProt P12931); experiment: Kinase profiling Src
# Text: as §1
# [14] = target: PAK4 (Homo sapiens, UniProt O96013); experiment: Kinase profiling PAK4
# PAK4, sequence (O96013 whole entry, species assumed): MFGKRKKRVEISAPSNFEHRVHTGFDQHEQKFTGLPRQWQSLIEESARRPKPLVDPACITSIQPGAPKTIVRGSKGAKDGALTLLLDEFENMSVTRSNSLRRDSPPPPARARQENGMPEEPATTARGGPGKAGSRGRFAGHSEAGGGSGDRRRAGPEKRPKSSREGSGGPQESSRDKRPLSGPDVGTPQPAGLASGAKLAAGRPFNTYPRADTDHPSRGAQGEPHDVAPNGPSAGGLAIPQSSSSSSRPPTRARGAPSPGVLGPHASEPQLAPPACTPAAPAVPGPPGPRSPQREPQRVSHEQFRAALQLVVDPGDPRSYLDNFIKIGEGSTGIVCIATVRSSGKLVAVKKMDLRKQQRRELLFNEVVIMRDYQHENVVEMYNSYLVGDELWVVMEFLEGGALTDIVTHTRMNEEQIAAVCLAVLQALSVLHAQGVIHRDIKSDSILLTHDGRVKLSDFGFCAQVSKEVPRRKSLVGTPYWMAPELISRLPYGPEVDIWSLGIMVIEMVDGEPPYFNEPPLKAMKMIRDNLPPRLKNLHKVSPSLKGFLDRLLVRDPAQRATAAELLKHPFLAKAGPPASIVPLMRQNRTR
# Text: as §1
# [15] = target: CHK2 (Homo sapiens, UniProt O96017); experiment: Kinase profiling CHK2
# Text: as §1
# [16] = target: RSK2 (Homo sapiens, UniProt P51812); experiment: Kinase profiling RSK2; settings: 100 micromolar inhibitor concentration; 100 is no change
# RSK2, sequence (P51812 whole entry, species assumed): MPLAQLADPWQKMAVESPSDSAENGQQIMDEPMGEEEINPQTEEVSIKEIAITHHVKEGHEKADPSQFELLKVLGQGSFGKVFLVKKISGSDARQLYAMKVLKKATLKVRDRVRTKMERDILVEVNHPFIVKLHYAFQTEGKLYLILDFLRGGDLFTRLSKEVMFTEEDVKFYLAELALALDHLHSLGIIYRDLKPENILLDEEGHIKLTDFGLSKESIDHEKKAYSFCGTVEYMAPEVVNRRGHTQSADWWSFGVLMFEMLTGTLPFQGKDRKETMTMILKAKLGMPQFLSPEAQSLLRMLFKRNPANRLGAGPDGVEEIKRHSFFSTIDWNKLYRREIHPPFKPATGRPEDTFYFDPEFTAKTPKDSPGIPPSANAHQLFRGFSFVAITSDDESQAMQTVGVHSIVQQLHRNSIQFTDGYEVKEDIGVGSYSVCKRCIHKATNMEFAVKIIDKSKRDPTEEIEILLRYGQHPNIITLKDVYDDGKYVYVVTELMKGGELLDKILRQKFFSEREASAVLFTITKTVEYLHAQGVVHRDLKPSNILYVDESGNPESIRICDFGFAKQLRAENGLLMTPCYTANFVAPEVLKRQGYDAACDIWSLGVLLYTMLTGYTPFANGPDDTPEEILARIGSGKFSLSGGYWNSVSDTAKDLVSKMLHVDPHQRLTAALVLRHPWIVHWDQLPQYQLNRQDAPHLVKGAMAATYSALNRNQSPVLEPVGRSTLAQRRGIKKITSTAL
# Text: as §1
# [17] = target: p38b MAPK (Homo sapiens, UniProt Q15759); experiment: Kinase profiling p38b MAPK; settings: 100 micromolar inhibitor concentration; 100 is no change
# p38b MAPK, sequence (Q15759 whole entry): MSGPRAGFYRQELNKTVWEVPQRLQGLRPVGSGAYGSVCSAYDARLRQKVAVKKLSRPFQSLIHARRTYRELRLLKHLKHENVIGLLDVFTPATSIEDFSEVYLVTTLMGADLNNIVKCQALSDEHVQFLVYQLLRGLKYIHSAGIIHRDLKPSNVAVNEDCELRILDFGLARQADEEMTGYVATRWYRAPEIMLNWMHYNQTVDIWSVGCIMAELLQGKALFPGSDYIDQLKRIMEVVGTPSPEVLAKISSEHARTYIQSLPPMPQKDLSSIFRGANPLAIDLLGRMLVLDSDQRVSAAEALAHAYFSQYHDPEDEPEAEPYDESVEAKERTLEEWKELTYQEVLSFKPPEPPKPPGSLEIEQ
# Text: as §1
# [18] = target: ERK2 (Homo sapiens, UniProt P28482); experiment: Kinase profiling ERK2; settings: 100 micromolar inhibitor concentration; 100 is no change
# ERK2, sequence (P28482 whole entry, species assumed): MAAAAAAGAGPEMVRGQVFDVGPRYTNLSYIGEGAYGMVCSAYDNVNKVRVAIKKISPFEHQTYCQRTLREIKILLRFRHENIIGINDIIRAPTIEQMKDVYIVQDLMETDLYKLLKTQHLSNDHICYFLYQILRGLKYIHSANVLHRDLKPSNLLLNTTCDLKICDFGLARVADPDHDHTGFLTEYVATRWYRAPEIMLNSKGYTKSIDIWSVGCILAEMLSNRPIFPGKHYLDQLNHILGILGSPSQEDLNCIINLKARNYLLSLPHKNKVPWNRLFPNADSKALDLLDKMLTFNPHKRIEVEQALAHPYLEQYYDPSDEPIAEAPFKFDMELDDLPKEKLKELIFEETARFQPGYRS
# Text: as §1
# [19] = 100 micromolar inhibitor concentration, 100 is no change
# [20] = 100 micromolar inhibitor, 100 = no change
# TrkA, sequence (P04629 33-796, species assumed): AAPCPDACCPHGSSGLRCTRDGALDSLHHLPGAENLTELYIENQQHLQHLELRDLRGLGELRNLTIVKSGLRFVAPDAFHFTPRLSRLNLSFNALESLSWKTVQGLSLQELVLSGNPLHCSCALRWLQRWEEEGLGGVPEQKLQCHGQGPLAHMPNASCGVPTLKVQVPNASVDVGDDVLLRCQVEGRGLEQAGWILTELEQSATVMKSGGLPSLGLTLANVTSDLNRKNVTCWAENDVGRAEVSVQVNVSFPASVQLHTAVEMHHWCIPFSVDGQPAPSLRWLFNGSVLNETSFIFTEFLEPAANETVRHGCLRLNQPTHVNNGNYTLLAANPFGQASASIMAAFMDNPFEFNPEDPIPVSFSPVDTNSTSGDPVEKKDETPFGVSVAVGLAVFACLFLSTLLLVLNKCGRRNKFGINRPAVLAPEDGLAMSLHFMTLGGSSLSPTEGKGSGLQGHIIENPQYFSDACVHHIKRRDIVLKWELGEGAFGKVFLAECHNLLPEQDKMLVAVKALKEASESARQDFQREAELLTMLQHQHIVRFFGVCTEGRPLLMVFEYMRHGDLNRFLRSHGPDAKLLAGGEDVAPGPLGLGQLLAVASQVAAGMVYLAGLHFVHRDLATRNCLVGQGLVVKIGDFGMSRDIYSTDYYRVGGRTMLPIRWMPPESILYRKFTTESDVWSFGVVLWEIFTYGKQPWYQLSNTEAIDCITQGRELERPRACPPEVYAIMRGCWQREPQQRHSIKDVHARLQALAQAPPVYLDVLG
structure (smiles),measurement,setting,value
CC(=O)Nc1nc2ccc([N+](=O)[O-])cc2s1 [Compound 13-10],remaining activity at 100 µM,"[1]; 100 micromolar inhibitor concentration, 100 is no change, read-out: residual kinase activity, TrkA",98%
same,remaining activity at 100 µM,"[2]; 100 micromolar inhibitor concentration, 100 is no change, read-out: residual kinase activity, DYRK1A",6%
same,remaining activity at 100 µM,"[3]; 100 micromolar inhibitor concentration, 100 is no change, read-out: residual kinase activity, HER4",81%
same,remaining activity at 100 µM,"[4]; 100 micromolar inhibitor concentration, 100 is no change, read-out: residual kinase activity, JNK1",82%
same,remaining activity at 100 µM,"[5]; 100 micromolar inhibitor concentration, 100 is no change, read-out: residual kinase activity, PLK1",96%
same,remaining activity at 100 µM,"[6]; 100 micromolar inhibitor concentration, 100 is no change, read-out: residual kinase activity, NEK6",92%
same,remaining activity at 100 µM,"[7]; 100 micromolar inhibitor concentration, 100 is no change, read-out: residual kinase activity, CAMK1",84%
same,remaining activity at 100 µM,"[8]; 100 micromolar inhibitor concentration, 100 is no change, read-out: residual kinase activity, PDK1",93%
same,"residual kinase activity, CK2",[9]; [19],51
same,remaining activity at 100 µM,"[10]; 100 micromolar inhibitor concentration, 100 is no change, read-out: residual kinase activity, MKK1",62%
same,remaining activity at 100 µM,"[11]; 100 micromolar inhibitor concentration, 100 is no change, read-out: residual kinase activity, RSK1",89%
same,remaining activity at 100 µM,"[12]; 100 micromolar inhibitor concentration, 100 is no change, read-out: residual kinase activity, TTK",55%
same,remaining activity at 100 µM,"[13]; 100 micromolar inhibitor concentration, 100 is no change, read-out: residual kinase activity, Src",85%
same,remaining activity at 100 µM,"[14]; 100 micromolar inhibitor concentration, 100 is no change, read-out: residual kinase activity, PAK4",86%
same,remaining activity at 100 µM,"[15]; 100 micromolar inhibitor concentration, 100 is no change, read-out: residual kinase activity, CHK2",59%
COc1cccc(NC(=O)Nc2nc3cc(O)ccc3s2)c1 [Compound 13-62],"residual kinase activity, TrkA",[1]; [20],9
same,"residual kinase activity, DYRK1A",[2]; [20],7
same,"residual kinase activity, HER4",[3]; [20],13
same,"residual kinase activity, JNK1",[4]; [20],114
same,"residual kinase activity, PLK1",[5]; [20],98
same,"residual kinase activity, NEK6",[6]; [20],104
same,"residual kinase activity, CAMK1",[7]; [20],8
same,"residual kinase activity, PDK1",[8]; [20],77
same,"residual kinase activity, CK2",[9]; [20],24
same,"residual kinase activity, MKK1",[10]; [20],15
same,"residual kinase activity, RSK1",[11]; [20],25
same,"residual kinase activity, TTK",[12]; [20],25
same,"residual kinase activity, Src",[13]; [20],7
same,"residual kinase activity, PAK4",[14]; [20],22
same,"residual kinase activity, CHK2",[15]; [20],18
COc1ccc2sc(NC(=O)c3ccc(NC(C)=O)cc3)nc2c1 [MS:LY-2-77],"residual kinase activity, JNK1",[4]; [19],104
same,"residual kinase activity, RSK2",[16],81
same,"residual kinase activity, PDK1",[8]; [19],103
same,"residual kinase activity, MKK1",[10]; [19],95
same,"residual kinase activity, p38b MAPK",[17],110
same,"residual kinase activity, RSK1",[11]; [19],85
same,"residual kinase activity, ERK2",[18],105
COc1ccc2sc(NC(=O)c3cccc(NC(C)=O)c3)nc2c1 [MS:LY-2-85],"residual kinase activity, JNK1",[4]; [19],97
same,"residual kinase activity, RSK2",[16],32
same,"residual kinase activity, PDK1",[8]; [19],80
same,"residual kinase activity, MKK1",[10]; [19],83
same,"residual kinase activity, p38b MAPK",[17],92
same,"residual kinase activity, RSK1",[11]; [19],54
same,"residual kinase activity, ERK2",[18],98
CC(=O)Nc1ccc(C(=O)Nc2nc3cc(O)ccc3s2)cc1 [MS:LY-2-87],"residual kinase activity, JNK1",[4]; [19],105
same,"residual kinase activity, RSK2",[16],28
same,"residual kinase activity, PDK1",[8]; [19],69
same,"residual kinase activity, MKK1",[10]; [19],69
same,"residual kinase activity, p38b MAPK",[17],82
same,"residual kinase activity, RSK1",[11]; [19],29
same,"residual kinase activity, ERK2",[18],81
CC(=O)Nc1cccc(C(=O)Nc2nc3cc(O)ccc3s2)c1 [MS:LY-2-89],"residual kinase activity, JNK1",[4]; [19],68
same,"residual kinase activity, RSK2",[16],8
same,"residual kinase activity, PDK1",[8]; [19],44
same,"residual kinase activity, MKK1",[10]; [19],56
same,"residual kinase activity, p38b MAPK",[17],17
same,"residual kinase activity, RSK1",[11]; [19],13
same,"residual kinase activity, ERK2",[18],68

# Source: patent US10231954B2, “Neurodegenerative therapies” (LYTIX BIOPHARMA AS, priority 2014, dated 2019)
